In patent publication US12077503B2, “Substituted cyclic amides and their use as herbicides” (FMC CORPORATION, priority 2015, dated 2024):

Tests used:
Type in all cases: in vivo
[1] = tested on: velvetleaf (Abutilon theophrasti); assay: Test G Pre-Emergence Protocol; conditions: Abutilon theophrasti, pre-emergence, 312 h, evaluated after 13 days; for pest or weed control at 15.625 g/ha: 15.625 g ai/ha; for pest or weed control at 15.625 g/ha / pest or weed control at 250 g/ha: read-out: Velvetleaf damage rating (100=total damage to plant; 0=no damage to plant); for pest or weed control at 62.5 g/ha: 62.5 g ai/ha, 100=total damage to plant, 0=no damage to plant, read-out: plant damage rating, Velvetleaf; for pest or weed control at 250 g/ha: 250 g ai/ha
Summary of the method: (§1)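 Under a 24/16° C day/night regime with 14 h light and 65% humidity, sown pots were sprayed after one day with compound (15.625, 62.5 or 250 g/ha; 50:50 acetone/water, 0.5% Tween 20). Damage was assessed visually 13 days later, 0 to 100.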

[2] = tested on: barnyardgrass (Echinochloa crus-galli); assay: Test G Pre-Emergence Protocol; conditions: Echinochloa crus-galli, pre-emergence, 312 h, evaluated after 13 days; for pest or weed control at 15.625 g/ha: 15.625 g ai/ha, read-out: Barnyard grass damage rating (100=total damage to plant; 0=no damage to plant); for pest or weed control at 62.5 g/ha: 62.5 g ai/ha, 100=total damage to plant, 0=no damage to plant, read-out: plant damage rating, Barnyardgrass; for pest or weed control at 250 g/ha: 250 g ai/ha, read-out: Barnyardgrass damage rating (100=total damage to plant; 0=no damage to plant)
Summary of the method: as §1

[3] = tested on: ivy-leaved morning glory (Ipomoea hederacea); assay: Test G Pre-Emergence Protocol; conditions: Ipomoea, pre-emergence, 312 h, evaluated after 13 days; for pest or weed control at 15.625 g/ha: 15.625 g ai/ha, read-out: Morning-glory, Ivy-leaved damage rating (100=total damage to plant; 0=no damage to plant); for pest or weed control at 62.5 g/ha: 62.5 g ai/ha, 100=total damage to plant, 0=no damage to plant, read-out: plant damage rating, Morningglory, Ivy-leaved; for pest or weed control at 250 g/ha: 250 g ai/ha, read-out: Morningglory, Ivy-leaved damage rating (100=total damage to plant; 0=no damage to plant)
Summary of the method: as §1

[4] = tested on: redroot pigweed (Amaranthus retroflexus); assay: Test G Pre-Emergence Protocol; conditions: Amaranthus retroflexus, pre-emergence, 312 h, evaluated after 13 days; for pest or weed control at 15.625 g/ha: 15.625 g ai/ha; for pest or weed control at 15.625 g/ha / pest or weed control at 250 g/ha: read-out: Pigweed, Redroot damage rating (100=total damage to plant; 0=no damage to plant); for pest or weed control at 62.5 g/ha: 62.5 g ai/ha, 100=total damage to plant, 0=no damage to plant, read-out: plant damage rating, Pigweed, Redroot; for pest or weed control at 250 g/ha: 250 g ai/ha
Summary of the method: as §1

[5] = tested on: giant foxtail (Setaria faberi); assay: Test G Pre-Emergence Protocol; conditions: Setaria faberi, pre-emergence, 312 h, evaluated after 13 days; for pest or weed control at 15.625 g/ha: 15.625 g ai/ha; for pest or weed control at 15.625 g/ha / pest or weed control at 250 g/ha: read-out: Foxtail, Giant damage rating (100=total damage to plant; 0=no damage to plant); for pest or weed control at 62.5 g/ha: 62.5 g ai/ha, 100=total damage to plant, 0=no damage to plant, read-out: plant damage rating, Foxtail, Giant; for pest or weed control at 250 g/ha: 250 g ai/ha
Summary of the method: as §1

[6] = tested on: corn (Zea mays); assay: Test G Pre-Emergence Protocol; conditions: Zea mays, pre-emergence, 312 h, evaluated after 13 days; for plant injury at 15.625 g/ha: 15.625 g ai/ha; for plant injury at 15.625 g/ha / plant injury at 250 g/ha: read-out: Corn damage rating (100=total damage to plant; 0=no damage to plant); for plant injury at 62.5 g/ha: 62.5 g ai/ha, 100=total damage to plant, 0=no damage to plant, read-out: plant damage rating, Corn; for plant injury at 250 g/ha: 250 g ai/ha
Summary of the method: as §1

[7] = tested on: velvetleaf (Abutilon theophrasti); assay: Test G Post-Emergence Protocol; conditions: Abutilon theophrasti, post-emergence, 312 h; for pest or weed control at 15.625 g/ha: 15.625 g ai/ha, evaluated after 13 days (100=total damage to plant; 0=no damage to plant), read-out: Velvetleaf damage rating; for pest or weed control at 62.5 g/ha: 62.5 g ai/ha, read-out: Velvetleaf damage rating (100=total damage to plant; 0=no damage to plant); for pest or weed control at 62.5 g/ha / pest or weed control at 250 g/ha: evaluated after 13 days; for pest or weed control at 250 g/ha: 250 g ai/ha, read-out: damage to plant, Velvetleaf (100=total damage to plant; 0=no damage to plant)
Summary of the method: (§2)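 Pot-grown seedlings, 8 days old, raised in a glasshouse at 24/16 °C day/night with 14 h light and 65% humidity, were sprayed post-emergence with test compound in acetone/water (50:50) plus 0.5% Tween 20 at 15.625, 62.5 or 250 g/ha. Damage was scored visually 13 days later on a 0–100 scale (100 = total damage).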

[8] = tested on: barnyardgrass (Echinochloa crus-galli); assay: Test G Post-Emergence Protocol; conditions: Echinochloa crus-galli, post-emergence, 312 h; for pest or weed control at 15.625 g/ha: 15.625 g ai/ha, evaluated after 13 days (100=total damage to plant; 0=no damage to plant), read-out: Barnyardgrass damage rating; for pest or weed control at 62.5 g/ha: 62.5 g ai/ha, read-out: Barnyardgrass damage rating (100=total damage to plant; 0=no damage to plant); for pest or weed control at 62.5 g/ha / pest or weed control at 250 g/ha: evaluated after 13 days; for pest or weed control at 250 g/ha: 250 g ai/ha, read-out: damage to plant, Barnyardgrass (100=total damage to plant; 0=no damage to plant)
Summary of the method: as §2

[9] = tested on: ivy-leaved morning glory (Ipomoea hederacea); assay: Test G Post-Emergence Protocol; conditions: Ipomoea, post-emergence, 312 h; for pest or weed control at 15.625 g/ha: 15.625 g ai/ha, evaluated after 13 days (100=total damage to plant; 0=no damage to plant), read-out: Morningglory, Ivy-leaved damage rating; for pest or weed control at 62.5 g/ha: 62.5 g ai/ha, read-out: Morningglory, Ivy-leaved damage rating (100=total damage to plant; 0=no damage to plant); for pest or weed control at 62.5 g/ha / pest or weed control at 250 g/ha: evaluated after 13 days; for pest or weed control at 250 g/ha: 250 g ai/ha, read-out: damage to plant, Morningglory, Ivy-leaved (100=total damage to plant; 0=no damage to plant)
Summary of the method: as §2

[10] = tested on: redroot pigweed (Amaranthus retroflexus); assay: Test G Post-Emergence Protocol; conditions: Amaranthus retroflexus, post-emergence, 312 h; for pest or weed control at 15.625 g/ha: 15.625 g ai/ha, evaluated after 13 days (100=total damage to plant; 0=no damage to plant), read-out: Pigweed, Redroot damage rating; for pest or weed control at 62.5 g/ha: 62.5 g ai/ha, read-out: Pigweed, Redroot damage rating (100=total damage to plant; 0=no damage to plant); for pest or weed control at 62.5 g/ha / pest or weed control at 250 g/ha: evaluated after 13 days; for pest or weed control at 250 g/ha: 250 g ai/ha, read-out: damage to plant, Pigweed, Redroot (100=total damage to plant; 0=no damage to plant)
Summary of the method: as §2

[11] = tested on: giant foxtail (Setaria faberi); assay: Test G Post-Emergence Protocol; conditions: Setaria faberi, post-emergence, 312 h; for pest or weed control at 15.625 g/ha: 15.625 g ai/ha, evaluated after 13 days (100=total damage to plant; 0=no damage to plant), read-out: Foxtail, Giant damage rating; for pest or weed control at 62.5 g/ha: 62.5 g ai/ha, read-out: Foxtail, Giant damage rating (100=total damage to plant; 0=no damage to plant); for pest or weed control at 62.5 g/ha / pest or weed control at 250 g/ha: evaluated after 13 days; for pest or weed control at 250 g/ha: 250 g ai/ha, read-out: damage to plant, Foxtail, Giant (100=total damage to plant; 0=no damage to plant)
Summary of the method: as §2

[12] = tested on: corn (Zea mays); assay: Test G Post-Emergence Protocol; conditions: Zea mays, post-emergence, 312 h; for plant injury at 15.625 g/ha: 15.625 g ai/ha, evaluated after 13 days (100=total damage to plant; 0=no damage to plant), read-out: Corn damage rating; for plant injury at 62.5 g/ha: 62.5 g ai/ha, read-out: Corn damage rating (100=total damage to plant; 0=no damage to plant); for plant injury at 62.5 g/ha / plant injury at 250 g/ha: evaluated after 13 days; for plant injury at 250 g/ha: 250 g ai/ha, read-out: damage to plant, Corn (100=total damage to plant; 0=no damage to plant)
Summary of the method: as §2

Structure (SMILES) | pest or weed control at 15.625 g/ha [1] [%] | pest or weed control at 62.5 g/ha [1] [%] | pest or weed control at 250 g/ha [1] [%] | pest or weed control at 15.625 g/ha [2] [%] | pest or weed control at 62.5 g/ha [2] [%] | pest or weed control at 250 g/ha [2] [%] | pest or weed control at 15.625 g/ha [3] [%] | pest or weed control at 62.5 g/ha [3] [%] | pest or weed control at 250 g/ha [3] [%] | pest or weed control at 15.625 g/ha [4] [%] | pest or weed control at 62.5 g/ha [4] [%] | pest or weed control at 250 g/ha [4] [%] | pest or weed control at 15.625 g/ha [5] [%] | pest or weed control at 62.5 g/ha [5] [%] | pest or weed control at 250 g/ha [5] [%] | plant injury at 15.625 g/ha [6] [%] | plant injury at 62.5 g/ha [6] [%] | plant injury at 250 g/ha [6] [%] | pest or weed control at 15.625 g/ha [7] [%] | pest or weed control at 62.5 g/ha [7] [%] | also measured
Cc1ncc(NC(=O)[C@@H]2C(=O)N(C)C[C@H]2c2ccc(C(F)(F)F)cc2)s1 (racemic) [Compound 1595] | 0 | 0 | 0 | 0 | 0 | 0 | 0 | 0 | 0 | 0 | 0 | 0 | 0 | 0 | 0 | 0 | 0 | 0 | 0 | 10 | pest or weed control at 250 g/ha [7]: 10%; pest or weed control at 15.625 g/ha [8]: 10%; pest or weed control at 62.5 g/ha [8]: 10%; pest or weed control at 250 g/ha [8]: 10%; pest or weed control at 15.625 g/ha [9]: 0%; pest or weed control at 62.5 g/ha [9]: 60%; pest or weed control at 250 g/ha [9]: 20%; pest or weed control at 15.625 g/ha [10]: 0%; pest or weed control at 62.5 g/ha [10]: 10%; pest or weed control at 250 g/ha [10]: 20%; pest or weed control at 15.625 g/ha [11]: 0%; pest or weed control at 62.5 g/ha [11]: 0%; pest or weed control at 250 g/ha [11]: 10%; plant injury at 15.625 g/ha [12]: 0%; plant injury at 62.5 g/ha [12]: 60%; plant injury at 250 g/ha [12]: 0%
CSc1ccccc1NC(=O)[C@@H]1C(=O)N(C)C[C@H]1c1ccc(C(F)(F)F)nc1 (racemic) [Compound 1584] | 0 | 0 | 20 | 0 | 0 | 90 | 0 | 0 | 10 | 0 | 0 | 60 | 0 | 50 | 90 | 0 | 0 | 70 | 0 | 0 | pest or weed control at 250 g/ha [7]: 20%; pest or weed control at 15.625 g/ha [8]: 0%; pest or weed control at 62.5 g/ha [8]: 0%; pest or weed control at 250 g/ha [8]: 70%; pest or weed control at 15.625 g/ha [9]: 0%; pest or weed control at 62.5 g/ha [9]: 20%; pest or weed control at 250 g/ha [9]: 10%; pest or weed control at 15.625 g/ha [10]: 0%; pest or weed control at 62.5 g/ha [10]: 0%; pest or weed control at 250 g/ha [10]: 40%; pest or weed control at 15.625 g/ha [11]: 0%; pest or weed control at 62.5 g/ha [11]: 40%; pest or weed control at 250 g/ha [11]: 80%; plant injury at 15.625 g/ha [12]: 0%; plant injury at 62.5 g/ha [12]: 10%; plant injury at 250 g/ha [12]: 0%
